# From patent publication US20190022039A1, “COMPOUND HAVING ENHANCING ACTIVITY FOR GLUCAGON-LIKE PEPTIDE-1 RECEPTOR ACTIONS” (AJINOMOTO CO., INC., priority 2016, published 2019)
# How the values were obtained:
# KKAy mice [1] = assay: Food intake-suppressive effect in diabetes model mouse; assay type: in vivo; details: male KKAy mice fasted overnight, 3 mg/kg oral in simulated intestinal fluid, 4 hr after administration, vs simulated intestinal fluid group (FIG. 3)
# Protocol: 11-week-old male KKAy mice were randomly divided into 2 groups. After fasting overnight, simulated intestinal fluid (containing 10 mM taurocholic acid, 2 mM lecithin, 55 mM maleic acid, 81.6 mM sodium hydroxide, 125 mM sodium chloride), or the compound of the present invention (compound 96) dissolved in the simulated intestinal fluid was orally administered (3 mg/kg), a commercially available feed (CRF-1, manufactured by Oriental Yeast Co., ltd.) was given and changes in the food intake was monitored.
# human GLP-1R = biological target: T1, human GLP-1R (Homo sapiens, UniProt P43220); assay: GLP-1 receptor in vitro calcium assay (intracellular free calcium concentration change induced via GLP-1 receptor); assay type: cell-based; details: for EC50: PRG48 cells transfected with human GLP-1R, compound added with 250 pM GLP-1, Ca2+ response ΔF/F, read-out: Ca EC50 value; for GLP-1 receptor action enhancing activity (vs BETP): intensity compared to BETP, activity of BETP as 1
# T1 construct: expressed in transfected cells; host or cells: PEAK RAPID-derived Gα15-trans48 LD stably expressing cells (PRG48), transiently transfected with Lipofectamine 2000
# T1 sequence (P43220 24-463): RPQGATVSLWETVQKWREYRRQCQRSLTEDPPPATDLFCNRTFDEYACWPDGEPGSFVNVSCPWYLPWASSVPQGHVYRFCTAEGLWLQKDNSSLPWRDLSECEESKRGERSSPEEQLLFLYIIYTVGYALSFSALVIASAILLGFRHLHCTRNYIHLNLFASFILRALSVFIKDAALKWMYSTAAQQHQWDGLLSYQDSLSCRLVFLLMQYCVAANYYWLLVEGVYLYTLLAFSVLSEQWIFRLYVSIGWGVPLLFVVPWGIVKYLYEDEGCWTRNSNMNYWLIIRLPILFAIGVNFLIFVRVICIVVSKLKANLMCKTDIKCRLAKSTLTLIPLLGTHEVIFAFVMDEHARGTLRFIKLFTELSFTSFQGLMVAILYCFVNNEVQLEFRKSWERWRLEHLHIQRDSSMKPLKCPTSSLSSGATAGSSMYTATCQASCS
# In short: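 PRG48 cells transiently transfected with human GLP-1R and loaded with calcium dye in HEPES buffer containing probenecid. Compound added together with 250 pM GLP-1; fluorescence (Ex480/Em540) recorded before and after addition. ΔF/F computed and EC50 fitted from it.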
# KKAy mice [2] = assay: Blood glucose increase suppressive effect in diabetes model mouse after whey protein and glucose load; assay type: in vivo; details: male KKAy mice, 3 mg/kg intraperitoneal
# Protocol: 23-week-old male KKAy mice fasted overnight were randomly divided into 2 groups, and whey protein was orally administered to each mouse at 3 g/kg to induce endogenous GLP-1 secretion. At 30 min after whey protein administration, the compound of the present invention (compound 50) or administration medium (vehicle) was intraperitoneally administered to each mouse at 3 mg/kg, glucose was orally administered immediately thereafter at 2 g/kg, blood samples were collected from the tail vein over time, and the blood glucose level was measured.
# [3] = tested on: isolated rat islets of Langerhans; assay: Glucose-stimulated insulin secretion in isolated rat islets of Langerhans; assay type: cell-based
# Protocol: The islets of Langerhans were isolated from the pancreas of male Wistar rats at around 10 weeks of age, according to a conventional method and using collagenase and Ficoll-Conray solution (Cryobiology, 2006, 52:90-8), and used for the activity evaluation of the compound.
# The isolated islets were precultured in glucose-free Krebs Ringer Bicarbonate-Hepes buffer (KRBH: 129 mM NaCl, 4.7 mM KCl, 5.0 mM NaHCO3, 1.2 mM MgSO4, […], 2.5 mM CaCl2, 10 mM HEPES, pH 7.4) under the conditions of 37° C., 5% CO2 for 30 min and seeded in each well of a 24 well plate by 5 islets. […] The culture supernatant was recovered from each well after culturing for 1 hr, and the concentration of insulin secreted in the supernatant was measured using a commercially available measurement kit (manufactured by Morinaga Institute of Biological Science, Inc.). The insulin secretion amounts under respective stimulation conditions were calculated as secretion amounts relative to the secretion amount at 8.3 mM glucose.
EC50 (human GLP-1R),GLP-1 receptor action enhancing activity (vs BETP) (human GLP-1R),Structure (SMILES),cumulative food consumption (KKAy mice [1]),"blood glucose at the time of peak (KKAy mice [2]; 30 min after whey protein 3 g/kg, glucose 2 g/kg oral, peak 30 min after glucose (FIG. 2A))","blood glucose AUC value (KKAy mice [2]; 180 min after glucose administration, p<0.05 vs vehicle (FIG. 2B))","insulin secretion ([3]; 30 μM compound 50 alone in buffer containing 8.3 mM glucose, 1 hr)","increase in insulin secretion amount as compared to 8.3 mM glucose alone ([3]; simultaneous addition of 30 μM compound 50 and 1 nM exendin-4, 8.3 mM glucose, 1 hr (FIG. 1))"
600 nM,42,CCCCCCNC(=O)[C@@H](Cc1cccnc1)NC(=O)Nc1ccc(NS(=O)(=O)c2ccc(C(C)(C)C)cc2)cc1 [Compound 96],significant suppression,,,,
6.8 nM,3720,CCCCC(CC)CNC(=O)[C@H](CC1CCCCC1)NC(=O)Nc1ccc(NS(=O)(=O)c2ccc(C(C)(C)C)cc2)cc1 (stereo partly drawn) [Compound 50],,suppression of blood glucose increase at the time of peak,734.3 ± 65.9 mg·h/dL,did not affect insulin secretion,about 2 fold
